# According to patent publication US4029789A, “1-[2'-(α-Furoyl or α-thienoyl)eth-1'-yl]-2-(4"-cinnamyl piperazin-1"-yl methyl)benzimidazoles and method of using same” (Delalande S.A., priority 1974, dated 1977):
# “Also recorded” adds a separate entry of the source. Read-outs that look alike come from different tables or passages of the source.
# Assays:
# [1] = test system: bronchoconstriction caused by histamine; assay: Anti-bronchoconstriction, anaesthetized guinea-pig, histamine i.v. (Konzett and Rossler); type: in vivo; settings: for Percentage of inhibition of the bronchoconstriction: histamine
# Experimental: (§1) Injected intravenously or intraduodenally, the compounds of formula (I) are capable of opposing bronchoconstriction caused in a guinea-pig anaesthetized with ethylurethane at 20 % (1.5 g/kg intraperitoneally) by intravenous injection of histamine ([…]/i.v.), of acetylcholine (40 μg/kg/i.v.), of bradykinine (5 μg/kg/i.v.) or of serotinine (20 μg/kg/i.v.).
# (§2) .- The anti-bronchoconstriction properties were studied in an anaesthetized guinea-pig and in a vigil guinea-pig.
# (§3) The antagonism exercised by the products studied to a bronchoconstriction due to an intravenous injection of acetylcholine, histamine or bradykinine was evaluated according to Konzett and Rossler's method.
# (§4) The products studied were administered intraduodenally or intravenously.
# [2] = test system: bronchoconstriction caused by acetylcholine; assay: Anti-bronchoconstriction, anaesthetized guinea-pig, acetylcholine i.v. (Konzett and Rossler); type: in vivo; settings: for activity by route of administration: i.v. and i.d.; for anti-bronchoconstriction properties (in words): guinea-pig, comparison with compound of patent No 3 862 177; for ED50: Cavia porcellus, iv, compound i.v., read-out: DE 50 (the source's name)
# Experimental: as §1, §2, §3, §4
# [3] = test system: bronchospasm caused by histamine aerosol; assay: Protection of vigil guinea-pig against histamine aerosol bronchospasm; type: in vivo
# Experimental: These properties are also observed by administering the compounds of formula (I) orally, to a vigil guinea-pig subjected to a histamine aerosol (exposition for 10 minutes to an aerosol obtained from an aqueous solution containing 0.4 % histamine and 10 % glycerine), the criterium of activity being the total protection from the fall caused by the bronchospasm.
# [4] = test system: bronchospasm caused by acetylcholine aerosol; assay: Protection of vigil guinea-pig against acetylcholine aerosol bronchospasm; type: in vivo
# [5] = test system: morphinic respiratory depression; assay: Respiratory analeptic properties, vigil rabbit, morphinic respiratory depression; type: in vivo; settings: for respiratory analeptic activity (in words): i.v., vigil rabbit, comparison with reference compound
# Experimental: The compounds of formula (I) administered intravenously to a vigil rabbit, are capable of opposing morphinic respiratory depression (subcutaneous injection of 50 mg/kg of morphine hydrochloride).
# .- Respiratory analeptic properties were studied in a vigil rabbit subjected to a morphinic respiratory depression. The products studied were administered intravenously.
# constraint ulcers = assay: Constraint ulcers, rat, 7 hours; type: in vivo
# Experimental: (a) Constraint ulcers: the compounds of formula (I), administered orally, reduce the area of ulcerations caused in a rat placed under constraint. Thus, compound No 73 0466 administered at a dose of 5 mg/kg/po, reduces by 78% the area of the ulcerations caused by being put under constraint for 7 hours.
# (§5) .- The anti-ulcerous activity was evaluated by the percentage of protection (quantal response) against ulcers caused in a rat by binding the pylorus or by putting under constraint for 7 hours.
# (§6) The products were administered intraduodenally (Shay's ulcer) or orally (constraint ulcer).
# Shay's ulcers = assay: Shay's ulcers, rat, binding the pylorus; type: in vivo; settings: for anti-ulcerous properties (in words): comparison with compound No. 7110 / patent No 3 862 177
# Experimental: (b) Shay's ulcers: the compounds of formula (I) administered intraduodenally reduce the area of ulcerations induce in a rat by binding the pylorus. Thus, compound code No 73 0466 administered in a dose of 20 mg/kg/i.d. reduces by 80 % Shay's ulcer.
# as §5, §6
# gastric secretion [6] = assay: Gastric antisecretory activity, vigil rat, pyloric binding for 4 hours; type: in vivo; settings: for gastric antisecretory properties (in words): comparison with compound No. 7110 / patent No 3 862 177; for ED50: Rattus norvegicus, 4 h, i.d.
# Experimental: .- The gastric antisecretory activity was studied in a vigil rat fitted with a pyloric binding for 4 hours, according to Shay and al.
# It was evaluated by diminutions in the volume, the concentration and the flow of free acid in the gastric juice. The compounds tested were administered intraduodenally.
# Acute toxicity, mouse = settings: in vivo
# gastric secretion [7] = assay: Gastric antisecretory properties, anaesthetized rat with Shay binding; type: in vivo; settings: 2 mg/kg i.d.
# Source text: The compounds of formula (I), administered intraduodenally to an anaesthetized rat provided with a Shay binding are capable of reducing the gastric secretion.
# [8] = test system: bronchoconstriction caused by bradykinine; assay: Anti-bronchoconstriction, anaesthetized guinea-pig, bradykinine i.v. (Konzett and Rossler); type: in vivo
# Experimental: as §1, §2, §3, §4
# [9] = test system: bronchoconstriction caused by serotonine; assay: Anti-bronchoconstriction, anaesthetized guinea-pig, serotonine i.v.; type: in vivo; settings: Cavia porcellus, iv, compound i.v., read-out: DE 50 (the source's name)
# Experimental: as §1
# [10] = test system: contractural action of histamine on the ileum; assay: Spasmolytic, ileum of guinea-pig, histamine
# Experimental: (§7) Compound code number 73 0457, introduced into the conserving medium, is capable of opposing the contractural action of histamine and bradykinine on the ileum of a guinea-pig, DI 50 being respectively 0.16 μg/ml and 3.1 μg/ml, prevents spasms in the uterus of a female rat induced by serotonine (DI 50= 0.8 μg/ml) and opposes the contracting effect of acetylcholine on the duodenum of a rat (DI 50= 0.8μg/ml).
# [11] = test system: contractural action of bradykinine on the ileum; assay: Spasmolytic, ileum of guinea-pig, bradykinine
# Experimental: as §7
# [12] = test system: spasms in the uterus induced by serotonine; assay: Spasmolytic, uterus of female rat, serotonine
# Experimental: as §7
# [13] = test system: contracting effect of acetylcholine on the duodenum; assay: Spasmolytic, duodenum of rat, acetylcholine
# Experimental: as §7
# [14] = acetylcholine i.v., 25 mg/kg i.d.
# [15] = acetylcholine, anaesthetized guinea-pig
# [16] = po, 2000 mg/kg, p.o., 2 000 mg/kg, read-out: Percentage mortality, orally
# [17] = read-out: Gastric antisecretory action, Volume, D.E. 50
molecule,measurement,setting,value
"O=C(CCn1c(CN2CCN(CC=Cc3ccccc3)CC2)nc2ccccc21)c1cccs1 [73 0466, dimaleate of 1-[2'(α -thienoyl)eth-1'yl]-2-(4""-cinnamylpiperazin 1""ylmethyl)benzimidazole]",ED50,"[1]; Cavia porcellus, histamine i.v., compound i.d., read-out: D.E. 50 (the source's name)",25 mg/kg
same,Percentage of inhibition of the bronchoconstriction,[1]; 25 mg/kg i.d.,50%
same,"Anti-bronchoconstriction action, percentage",[2]; [14],95%
same,Duration of anti-bronchoconstriction action,[2]; [14],> 30 min
same,Duration,"[2]; acetylcholine, 100 mg/kg i.d.",60 min
same,Percentage of inhibition of the bronchoconstriction,"[2]; acetylcholine, 100 mg/kg i.d.",100%
same,activity by route of administration,[2]; [15],"active in this same test, not only when administered intravenously but intraduodenally"
same,anti-bronchoconstriction properties (in words),[2],considerable anti-bronchoconstriction and respiratory analeptic properties
same,percentage of animals totally protected,[3]; 50 mg/kg p.o.,67%
same,percentage of animals totally protected,[4]; 50 mg/kg p.o.,100%
same,respiratory analeptic activity (in words),[5],considerable anti-bronchoconstriction and respiratory analeptic properties
same,reduction of the area of the ulcerations,"constraint ulcers; 5 mg/kg p.o., constraint for 7 hours",78%
same,reduction of Shay's ulcer (area of ulcerations),Shay's ulcers; 20 mg/kg i.d.,80%
same,anti-ulcerous properties (in words),Shay's ulcers,lower gastric antisecretory and anti-ulcerous activities
same,"Gastric antisecretory action, Free acid concentration",gastric secretion [6]; 2 mg/kg i.d.,inactive
same,gastric antisecretory properties (in words),gastric secretion [6],lower gastric antisecretory and anti-ulcerous activities
same,mortality,"Acute toxicity, mouse; [16]",30%
same,reduction of the volume of the gastric secretion,gastric secretion [7],28%
"prethcamide [MICORENE, reference compound]",Duration of effect,[5]; 10 mg/kg i.v.,7 min
"O=C(CCn1c(CN2CCN(CC=Cc3ccccc3)CC2)nc2ccccc21)c1ccco1 [73 0457, dimaleate of 1-[2'-(α-furoyl)eth-1' yl]-2-(4""-cinnamylpiperazin 1"" ylmethyl) benzimidazole]",Percentage of inhibition of the bronchoconstriction,[1]; 12.5 mg/kg i.d.,100%
same,ED50,[2]; acetylcholine i.v.,< 4 mg/kg
same,"Anti-bronchoconstriction action, percentage","[2]; acetylcholine i.v., 0.0625 mg/kg i.v.",63%
same,Percentage of inhibition of the bronchoconstriction,"[2]; acetylcholine, 12.5 mg/kg i.d.",70%
same,Duration,"[2]; acetylcholine, 12.5 mg/kg i.d., Table I",> 90 min
same,Duration,"[2]; acetylcholine, 12.5 mg/kg i.d., Table IV",> 90 min
same,times lower active dose than that of compound No. 7110,[2]; [15],38 times
same,activity by route of administration,[2]; [15],"active in this same test, not only when administered intravenously but intraduodenally"
same,anti-bronchoconstriction properties (in words),[2],considerable anti-bronchoconstriction and respiratory analeptic properties
same,Percentage of inhibition of the bronchoconstriction,"[8]; bradykinine, 8 mg/kg i.v.",75%
same,ED50,[9],< 4 mg/kg
same,percentage of animals totally protected,[3]; 1.56 mg/kg p.o.,50%
same,Duration,[3]; 100 mg/kg p.o.,> 6 h
same,Percentage of inhibition of the bronchoconstriction,[3]; 100 mg/kg p.o.,100%
same,percentage of animals totally protected,[4]; 12.5 mg/kg p.o.,50%
same,Duration of effect,[5]; 10 mg/kg i.v.,25 min
same,respiratory analeptic activity (in words),[5],considerable respiratory analeptic activity; also recorded: considerable anti-bronchoconstriction and respiratory analeptic properties
same,DI 50,[10],0.16 µg/mL
same,DI 50,[11],3.1 µg/mL
same,DI 50,[12],0.8 µg/mL
same,DI 50,[13],0.8 µg/mL
same,"Anti-ulcerous action, Shay's ulcer (percentage of protection, quantal response)",Shay's ulcers; 50 mg/kg i.d.,0
same,anti-ulcerous properties (in words),Shay's ulcers,lower gastric antisecretory and anti-ulcerous activities
same,ED50,"gastric secretion [6]; read-out: Gastric antisecretory action, Free acid concentration, D.E. 50",55 mg/kg
same,ED50,"gastric secretion [6]; read-out: Gastric antisecretory action, Free acid flow, D.E. 50",15 mg/kg
same,ED50,gastric secretion [6]; [17],11.5 mg/kg
same,gastric antisecretory properties (in words),gastric secretion [6],lower gastric antisecretory and anti-ulcerous activities
same,mortality,"Acute toxicity, mouse; iv, 48 mg/kg, i.v., at 48 ± 2.5 mg/kg, read-out: Percentage mortality, intravenously",~50%
same,LD50,"Acute toxicity, mouse; iv, read-out: Dose administered (mouse), intravenously, DE 50",48 ± 2.5 mg/kg
same,mortality,"Acute toxicity, mouse; [16]",0%
"O=C(CCn1c(CN2CCN(CC=Cc3ccccc3)CC2)nc2ccccc21)c1ccccc1 [7 110, reference compound]",ED50,[2]; acetylcholine i.v.,2.4 mg/kg
same,Anti-bronchoconstriction action,"[2]; acetylcholine i.v., 30 mg/kg i.d.",0
same,activity by route of administration,[2]; [15],acts solely intravenously
same,ED50,"[8]; Cavia porcellus, bradykinine i.v., compound i.d., read-out: D.E. 50 (the source's name)",30 mg/kg
same,Duration of effect,[5]; 4 mg/kg i.v.,0 min
same,"Percentage increase, respiratory amplitude",[5]; 4 mg/kg i.v.,0%
same,"Percentage increase, respiratory frequency",[5]; 4 mg/kg i.v.,0%
same,ED50,"constraint ulcers; Rattus norvegicus, po, 7 h, p.o., read-out: Anti-ulcerous action, Constraint ulcer for 7 hours, D.E. 50",4.2 mg/kg
same,ED50,"Shay's ulcers; Rattus norvegicus, i.d., read-out: Anti-ulcerous action, Shay's ulcer, D.E. 50",28.5 mg/kg
same,ED50,gastric secretion [6]; [17],2.5 mg/kg
same,mortality,"Acute toxicity, mouse; po, 4800 mg/kg, p.o., 4 800 mg/kg, read-out: Acute toxicity (p.o.), percentage mortality",30%
